Results taken from US5705492A, “3'-O-aminoacyl ARA uridines, method of making, and antiviral activity” (Hoffmann-La Roche Inc., priority 1995, dated 1998).
Counter-ions that a name gives are not always drawn.

Assays:
HSV-2 thymidine kinase = HSV-2 thymidine kinase (Human herpesvirus 2, UniProt P04407); experiment: inhibition of HSV-2 thymidine kinase; assay type: biochemical; conditions: 3H-thymidine phosphorylation, 37° C., 30 minutes, pH 8; read-out: IC50 against HSV-2 thymidine kinase
Procedure: (§1) In this test procedure, the assay mixture contains 50 mmol Tris HCl, pH 8, 5 mmol magnesium chloride, 5 mmol ATP, 0.3 μmol ^3 H-thymidine (50 Ci/mmol), suitably diluted enzyme preparation and various concentrations of test compounds in a total volume of 100 μl. Assays are incubated at 37° C. for 30 minutes and the reaction is terminated by immersion in a boiling water bath for 2 minutes. 85 μl aliquots from each assay are then dried on to DEAE-cellulose paper discs and the unphosphorylated ^3 H-thymidine is removed by washing in 4 mmol ammonium formate. The radioactivity remaining bound to the discs is then measured by scintillation spectrophotometry. The degree of inhibition at each concentration of test compound is expressed as a percentage of the control reaction (100%) after subtracting a measured blank value which represents the amount of radioactivity bound to the disc from a reaction containing heat-inactivated enzymes. The IC50 value, namely the concentration of test compound which inhibits enzyme activity by 50%, is then calculated.

HSV-1 thymidine kinase = HSV-1 thymidine kinase (Human herpesvirus 1, UniProt P0DTH5); experiment: inhibition of HSV-1 thymidine kinase; assay type: biochemical; conditions: 3H-thymidine phosphorylation, 37° C., 30 minutes, pH 8; read-out: IC50 against HSV-1 thymidine kinase
Procedure: as §1

Sequence of HSV-1 thymidine kinase (P0DTH5 whole entry): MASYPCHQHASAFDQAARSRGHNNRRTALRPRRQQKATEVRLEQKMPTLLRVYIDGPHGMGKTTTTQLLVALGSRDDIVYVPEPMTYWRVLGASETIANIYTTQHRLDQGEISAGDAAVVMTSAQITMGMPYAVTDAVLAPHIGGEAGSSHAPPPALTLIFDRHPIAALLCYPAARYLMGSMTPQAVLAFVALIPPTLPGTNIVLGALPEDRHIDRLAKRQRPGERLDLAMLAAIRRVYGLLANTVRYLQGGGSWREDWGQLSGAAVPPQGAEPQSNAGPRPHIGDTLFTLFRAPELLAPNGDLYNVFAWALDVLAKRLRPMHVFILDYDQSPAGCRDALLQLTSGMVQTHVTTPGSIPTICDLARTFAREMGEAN
Sequence of HSV-2 thymidine kinase (P04407 whole entry): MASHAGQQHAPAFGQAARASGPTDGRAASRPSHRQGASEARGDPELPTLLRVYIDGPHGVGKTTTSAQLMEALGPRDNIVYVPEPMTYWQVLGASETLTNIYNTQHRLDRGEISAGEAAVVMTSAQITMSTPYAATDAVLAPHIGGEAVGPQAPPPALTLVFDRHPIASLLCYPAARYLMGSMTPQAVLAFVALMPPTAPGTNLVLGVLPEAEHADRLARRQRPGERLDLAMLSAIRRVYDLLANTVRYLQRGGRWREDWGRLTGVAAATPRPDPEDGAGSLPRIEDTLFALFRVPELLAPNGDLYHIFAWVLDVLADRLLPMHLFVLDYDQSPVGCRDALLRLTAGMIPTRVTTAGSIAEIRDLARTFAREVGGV

IC50 (HSV-2 thymidine kinase): 1.1 nM | IC50 (HSV-1 thymidine kinase): 18 nM
SMILES: CCc1cn([C@@H]2O[C@H](CNC(=O)[C@H](C)Oc3cc(OC)c(Cl)cc3Cl)[C@@H](OC(=O)[C@@H](N)C(C)C)[C@@H]2F)c(=O)[nH]c1=O [Example 1, 1-[5-[2(S)-(2,4-dichloro-5-methoxyphenoxy)propionamido]-1,5-dideoxy-2-fluoro-3-O-L-valyl-β-D-arabinofuranosyl]-5-ethyluracil hydrochloride]
